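All cell lines were grown in 96-well plates and treated with compound for 48 hours. Definition used: TGI = concentration required for complete inhibition of growth.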
Assays:
Test in all cases: NCI anticancer screen, dose series, 48 h
A549 NSCLC = tested on: A549 NSCLC
ACHN renal = tested on: ACHN renal
NCI-H460 lung = tested on: NCI-H460 lung
CAKI-1 renal = tested on: CAKI-1 renal
OVCAR-4 ovarian = tested on: OVCAR-4 ovarian
OVCAR-5 ovarian = tested on: OVCAR-5 ovarian
COLO 205 colon = tested on: COLO 205 colon
IGROV1 ovarian = tested on: IGROV1 ovarian
SNB-19 CNS = tested on: SNB-19 CNS
TK-10 renal = tested on: TK-10 renal
CCRF-CEM leukemia = tested on: CCRF-CEM leukemia
PC-3 prostate = tested on: PC-3 prostate
U251 CNS = tested on: U251 CNS
HCT-116 colon = tested on: HCT-116 colon
A498 renal = tested on: A498 renal
OVCAR-8 ovarian = tested on: OVCAR-8 ovarian
HCT-15 colon = tested on: HCT-15 colon
T-47D breast = tested on: T-47D breast
MCF7 breast = tested on: MCF7 breast
SNB-75 CNS = tested on: SNB-75 CNS
786-0 renal = tested on: 786-0 renal
M14 melanoma = tested on: M14 melanoma
OVCAR-3 ovarian = tested on: OVCAR-3 ovarian
EKVX NSCLC = tested on: EKVX NSCLC
UACC-257 melanoma = tested on: UACC-257 melanoma
SF-268 CNS = tested on: SF-268 CNS
UO-31 renal = tested on: UO-31 renal
HS 578T breast = tested on: HS 578T breast
MDA-N = tested on: MDA-N
NCI/ADR-RES ovarian = tested on: NCI/ADR-RES ovarian
SK-OV-3 ovarian = tested on: SK-OV-3 ovarian
LOX IMVI melanoma = tested on: LOX IMVI melanoma
MDA-MB-231 breast = tested on: MDA-MB-231 breast
NCI-H23 lung = tested on: NCI-H23 lung
SK-MEL-5 melanoma = tested on: SK-MEL-5 melanoma
MOLT-4 leukemia = tested on: MOLT-4 leukemia
SN12C renal = tested on: SN12C renal
SK-MEL-2 melanoma = tested on: SK-MEL-2 melanoma
DU-145 prostate = tested on: DU-145 prostate
RPMI-8226 leukemia = tested on: RPMI-8226 leukemia
UACC-62 melanoma = tested on: UACC-62 melanoma
NCI-H522 lung = tested on: NCI-H522 lung
SW-620 colon = tested on: SW-620 colon
K-562 leukemia = tested on: K-562 leukemia
HL-60(TB) leukemia = tested on: HL-60(TB) leukemia
SF-295 CNS = tested on: SF-295 CNS
BT-549 breast = tested on: BT-549 breast
HOP-62 NSCLC = tested on: HOP-62 NSCLC
KM12 colon = tested on: KM12 colon
SK-MEL-28 melanoma = tested on: SK-MEL-28 melanoma
MALME-3M melanoma = tested on: MALME-3M melanoma
HOP-92 NSCLC = tested on: HOP-92 NSCLC
MDA-MB-435 = tested on: MDA-MB-435
SR leukemia = tested on: SR leukemia
HT29 colon = tested on: HT29 colon
RXF 393 renal = tested on: RXF 393 renal

How did the TGI (A549 NSCLC) turn out when COc1cc(CCN)c(OC)c(OC)c1 was run?
Its TGI is > 100 µM.

What about the TGI (ACHN renal) of the same compound?
Its TGI is > 100 µM.

And the TGI (NCI-H460 lung)?
Its TGI is > 100 µM.

And the TGI (CAKI-1 renal)?
The TGI was > 100 µM.

What about the TGI (OVCAR-4 ovarian) of the same compound?
The TGI was > 100 µM.

And the TGI (OVCAR-5 ovarian)?
The TGI was > 100 µM.

What about the TGI (COLO 205 colon) of the same compound?
The TGI was > 100 µM.

And the TGI (IGROV1 ovarian)?
The TGI was > 100 µM.

What about the TGI (SNB-19 CNS) of the same compound?
The TGI was > 100 µM.

And the TGI (TK-10 renal)?
Its TGI is > 100 µM.

What about the TGI (CCRF-CEM leukemia) of the same compound?
The TGI was > 100 µM.

What about the TGI (PC-3 prostate) of the same compound?
The TGI was > 100 µM.

And the TGI (U251 CNS)?
The TGI was > 100 µM.

And the TGI (HCT-116 colon)?
The TGI was > 100 µM.

What about the TGI (A498 renal) of the same compound?
Its TGI is > 100 µM.

What about the TGI (OVCAR-8 ovarian) of the same compound?
Its TGI is > 100 µM.

And the TGI (HCT-15 colon)?
Its TGI is > 100 µM.

And the TGI (T-47D breast)?
Its TGI is > 100 µM.

And the TGI (MCF7 breast)?
The TGI was > 100 µM.

What about the TGI (SNB-75 CNS) of the same compound?
The TGI was > 100 µM.

And the TGI (786-0 renal)?
The TGI was > 100 µM.

And the TGI (M14 melanoma)?
Its TGI is > 100 µM.

And the TGI (OVCAR-3 ovarian)?
The TGI was > 100 µM.

And the TGI (EKVX NSCLC)?
The TGI was > 100 µM.

And the TGI (UACC-257 melanoma)?
Its TGI is > 100 µM.

What about the TGI (SF-268 CNS) of the same compound?
Its TGI is > 100 µM.

And the TGI (UO-31 renal)?
The TGI was > 100 µM.

And the TGI (HS 578T breast)?
The TGI was > 100 µM.

What about the TGI (MDA-N) of the same compound?
Its TGI is > 100 µM.

And the TGI (NCI/ADR-RES ovarian)?
The TGI was > 100 µM.

And the TGI (SK-OV-3 ovarian)?
The TGI was > 100 µM.

And the TGI (LOX IMVI melanoma)?
The TGI was > 100 µM.

And the TGI (MDA-MB-231 breast)?
The TGI was > 100 µM.

What about the TGI (NCI-H23 lung) of the same compound?
Its TGI is > 100 µM.

And the TGI (SK-MEL-5 melanoma)?
Its TGI is 54.9 µM.

And the TGI (MOLT-4 leukemia)?
The TGI was > 100 µM.

And the TGI (SN12C renal)?
Its TGI is > 100 µM.

What about the TGI (SK-MEL-2 melanoma) of the same compound?
Its TGI is > 100 µM.

And the TGI (DU-145 prostate)?
Its TGI is > 100 µM.

What about the TGI (RPMI-8226 leukemia) of the same compound?
The TGI was > 100 µM.

What about the TGI (UACC-62 melanoma) of the same compound?
Its TGI is > 100 µM.

And the TGI (NCI-H522 lung)?
The TGI was > 100 µM.

What about the TGI (SW-620 colon) of the same compound?
Its TGI is > 100 µM.

And the TGI (K-562 leukemia)?
Its TGI is > 100 µM.

What about the TGI (HL-60(TB) leukemia) of the same compound?
Its TGI is > 100 µM.

What about the TGI (SF-295 CNS) of the same compound?
The TGI was > 100 µM.

What about the TGI (BT-549 breast) of the same compound?
Its TGI is > 100 µM.

What about the TGI (HOP-62 NSCLC) of the same compound?
Its TGI is > 100 µM.

What about the TGI (KM12 colon) of the same compound?
Its TGI is > 100 µM.

And the TGI (SK-MEL-28 melanoma)?
Its TGI is > 100 µM.

And the TGI (MALME-3M melanoma)?
Its TGI is > 100 µM.

And the TGI (HOP-92 NSCLC)?
Its TGI is > 100 µM.

What about the TGI (MDA-MB-435) of the same compound?
Its TGI is 61.1 µM.

And the TGI (SR leukemia)?
Its TGI is > 100 µM.

What about the TGI (HT29 colon) of the same compound?
Its TGI is > 100 µM.

And the TGI (RXF 393 renal)?
The TGI was > 100 µM.
